Bridge positions count the residues as written; N and C are the ends. Square brackets hold non-standard residues; d marks the D form. Peptide text beside a SMILES is read from it. * marks the point of attachment. Phe(3-COOH) = N[C@@H](Cc1cccc(C(=O)O)c1)C(=O)O; Phe(4-CONH2) = NC(=O)c1ccc(C[C@H](N)C(=O)O)cc1; Phe(4-COOH) = N[C@@H](Cc1ccc(C(=O)O)cc1)C(=O)O; Phe(4-CH2NH2) = NCc1ccc(C[C@H](N)C(=O)O)cc1; Bip = N[C@@H](Cc1ccc(-c2ccccc2)cc1)C(=O)O; Phe(3-CN) = N#Cc1cccc(C[C@H](N)C(=O)O)c1; Phe(4-CN) = N#Cc1ccc(C[C@H](N)C(=O)O)cc1; Phe(4-NH2) = Nc1ccc(C[C@H](N)C(=O)O)cc1; Phe(3-Me) = Cc1cccc(C[C@H](N)C(=O)O)c1; Phe(4-F) = N[C@@H](Cc1ccc(F)cc1)C(=O)O; Phe(4-Me) = Cc1ccc(C[C@H](N)C(=O)O)cc1; Phe(2-Me) = Cc1ccccc1C[C@H](N)C(=O)O; 4Pal = N[C@@H](Cc1ccncc1)C(=O)O; Cha = N[C@@H](CC1CCCCC1)C(=O)O; Carboxymethyl = O=C(O)C*; Orn = NCCC[C@H](N)C(=O)O; Aun = NCCCCCCCCCCC(=O)O; Dab = NCC[C@H](N)C(=O)O; Dap = NC[C@H](N)C(=O)O; AEEA = NCCOCCOCC(=O)O

The test deals with T1, PD-1/PD-L1 interaction (PE-labeled human PD-L1-Ig binding to Jurkat cell line over-expressing human PD-1) (Homo sapiens, UniProt Q15116).
T1 construct: expressed in transfected cells; host or cells: Jurkat
T1 sequence (Q15116 25-288): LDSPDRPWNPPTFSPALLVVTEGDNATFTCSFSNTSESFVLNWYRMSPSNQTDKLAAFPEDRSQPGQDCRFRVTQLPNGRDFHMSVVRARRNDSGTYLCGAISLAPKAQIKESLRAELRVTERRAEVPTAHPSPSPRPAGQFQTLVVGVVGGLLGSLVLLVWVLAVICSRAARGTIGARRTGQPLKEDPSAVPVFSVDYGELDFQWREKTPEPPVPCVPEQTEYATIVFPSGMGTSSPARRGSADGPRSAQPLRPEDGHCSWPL
In words: Jurkat-PD-1 Cell Binding High-Content Screening Assay (CBA). The following applies: Jurkat cell line over-expressing human PD-1; PE-labeled PD-L1-Ig 20 nM final; read-out: Jurkat hPD1-PDL1 IC50. In kind it is cell-based. The gist of the method:
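Binding of fluorescent PD-L1-Ig (20 nM final) to Jurkat-PD-1 cells was measured by automated imaging after 1 h, following a 2 h compound pre-treatment at 37° C.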
One may read the IC50 as the midpoint of a concentration-inhibition curve. On to `Cc1cccc(C[C@@H]2NC(=O)[C@H](CC(=O)O)NC(=O)[C@H](Cc3ccc(OCC(=O)O)cc3)NC(=O)[C@H](CN)NC(=O)CSC[C@@H](C(=O)N[C@@H](CCN)C(=O)NCCOCCOCC(=O)NCCCCCCCCCCC(=O)O)NC(=O)[C@H](CCCN)NC(=O)[C@H](C(C)C)NC(=O)[C@H](CC3CCCCC3)NC(=O)[C@H](CCN)NC(=O)[C@@H](CC(C)C)NC(=O)[C@H](CCCN)NC(=O)[C@H](Cc3ccc(C(=O)O)cc3)NC(=O)[C@H](Cc3ccc(-c4ccccc4)cc3)NC(=O)[C@H](C(C)C)NC2=O)c1` [Compound 2062] ({CH2CO}-[Dap]Y(Carboxymethyl)D[Phe(3-Me)]V[Bip][Phe(4-COOH)][Orn][dL][Dab][Cha]V[Orn]C[Dab][AEEA][Aun]-OH; thioether N-14), for which the 50% inhibitory concentration (IC50) worked out at 7 nM. The same measure for `Cc1cccc(C[C@@H]2NC(=O)[C@H](CC(=O)O)NC(=O)[C@H](Cc3ccc(OCC(=O)O)cc3)NC(=O)[C@H](CN)NC(=O)CSC[C@@H](C(=O)N[C@@H](CCN)C(=O)NCCOCCOCC(=O)NCCCCCCCCCCC(=O)O)NC(=O)[C@H](CCCN)NC(=O)[C@H](C(C)C)NC(=O)[C@H](CC3CCCCC3)NC(=O)[C@H](CCN)NC(=O)[C@@H](CC(C)C)NC(=O)[C@H](CCCN)NC(=O)[C@H](Cc3ccc(O)cc3)NC(=O)[C@H](Cc3ccc(-c4ccccc4)cc3)NC(=O)[C@H](Cc3ccccc3)NC2=O)c1` [Compound 2063] ({CH2CO}-[Dap]Y(Carboxymethyl)D[Phe(3-Me)]F[Bip]Y[Orn][dL][Dab][Cha]V[Orn]C[Dab][AEEA][Aun]-OH; thioether N-14): 4.9 nM. The value for `Cc1cccc(C[C@@H]2NC(=O)[C@H](CC(=O)O)NC(=O)[C@H](Cc3ccc(OCC(=O)O)cc3)NC(=O)[C@H](CN)NC(=O)CSC[C@@H](C(=O)N[C@@H](CCN)C(=O)NCCOCCOCC(=O)NCCCCCCCCCCC(=O)O)NC(=O)[C@H](CCCN)NC(=O)[C@H](C(C)C)NC(=O)[C@H](CC3CCCCC3)NC(=O)[C@H](CCN)NC(=O)[C@@H](CC(C)C)NC(=O)[C@H](CCCN)NC(=O)[C@H](Cc3ccc(O)cc3)NC(=O)[C@H](Cc3ccc(-c4ccccc4)cc3)NC(=O)[C@H](Cc3cccc(C(=O)O)c3)NC2=O)c1` [Compound 2064] ({CH2CO}-[Dap]Y(Carboxymethyl)D[Phe(3-Me)][Phe(3-COOH)][Bip]Y[Orn][dL][Dab][Cha]V[Orn]C[Dab][AEEA][Aun]-OH; thioether N-14) was 15.4 nM; that for `Cc1cccc(C[C@@H]2NC(=O)[C@H](CC(=O)O)NC(=O)[C@H](Cc3ccc(OCC(=O)O)cc3)NC(=O)[C@H](CN)NC(=O)CSC[C@@H](C(=O)N[C@@H](CCN)C(=O)NCCOCCOCC(=O)NCCCCCCCCCCC(=O)O)NC(=O)[C@H](CCCN)NC(=O)[C@H](C(C)C)NC(=O)[C@H](CC3CCCCC3)NC(=O)[C@H](CCN)NC(=O)[C@@H](CC(C)C)NC(=O)[C@H](CCCN)NC(=O)[C@H](Cc3ccc(O)cc3)NC(=O)[C@H](Cc3ccc(-c4ccccc4)cc3)NC(=O)[C@H](Cc3ccc(N)cc3)NC2=O)c1` [Compound 2065] ({CH2CO}-[Dap]Y(Carboxymethyl)D[Phe(3-Me)][Phe(4-NH2)][Bip]Y[Orn][dL][Dab][Cha]V[Orn]C[Dab][AEEA][Aun]-OH; thioether N-14) was 4.8 nM; that for `Cc1cccc(C[C@@H]2NC(=O)[C@H](CC(=O)O)NC(=O)[C@H](Cc3ccc(OCC(=O)O)cc3)NC(=O)[C@H](CN)NC(=O)CSC[C@@H](C(=O)N[C@@H](CCN)C(=O)NCCOCCOCC(=O)NCCCCCCCCCCC(=O)O)NC(=O)[C@H](CCCN)NC(=O)[C@H](C(C)C)NC(=O)[C@H](CC3CCCCC3)NC(=O)[C@H](CCN)NC(=O)[C@@H](CC(C)C)NC(=O)[C@H](CCCN)NC(=O)[C@H](Cc3ccc(O)cc3)NC(=O)[C@H](Cc3ccc(-c4ccccc4)cc3)NC(=O)[C@H](Cc3ccc(C(N)=O)cc3)NC2=O)c1` [Compound 2066] ({CH2CO}-[Dap]Y(Carboxymethyl)D[Phe(3-Me)][Phe(4-CONH2)][Bip]Y[Orn][dL][Dab][Cha]V[Orn]C[Dab][AEEA][Aun]-OH; thioether N-14) was 6 nM.

With `Cc1cccc(C[C@@H]2NC(=O)[C@H](CC(=O)O)NC(=O)[C@H](Cc3ccc(OCC(=O)O)cc3)NC(=O)[C@H](CN)NC(=O)CSC[C@@H](C(=O)N[C@@H](CCN)C(=O)NCCOCCOCC(=O)NCCCCCCCCCCC(=O)O)NC(=O)[C@H](CCCN)NC(=O)[C@H](C(C)C)NC(=O)[C@H](CC3CCCCC3)NC(=O)[C@H](CCN)NC(=O)[C@@H](CC(C)C)NC(=O)[C@H](CCCN)NC(=O)[C@H](Cc3ccc(O)cc3)NC(=O)[C@H](Cc3ccc(-c4ccccc4)cc3)NC(=O)[C@H](Cc3ccc(CN)cc3)NC2=O)c1` [Compound 2067] ({CH2CO}-[Dap]Y(Carboxymethyl)D[Phe(3-Me)][Phe(4-CH2NH2)][Bip]Y[Orn][dL][Dab][Cha]V[Orn]C[Dab][AEEA][Aun]-OH; thioether N-14), the IC50 is 53.2 nM.

As to `Cc1cccc(C[C@@H]2NC(=O)[C@H](CC(=O)O)NC(=O)[C@H](Cc3ccc(OCC(=O)O)cc3)NC(=O)[C@H](CN)NC(=O)CSC[C@@H](C(=O)N[C@@H](CCN)C(=O)NCCOCCOCC(=O)NCCCCCCCCCCC(=O)O)NC(=O)[C@H](CCCN)NC(=O)[C@H](C(C)C)NC(=O)[C@H](CC3CCCCC3)NC(=O)[C@H](CCN)NC(=O)[C@@H](CC(C)C)NC(=O)[C@H](CCCN)NC(=O)[C@H](Cc3ccc(O)cc3)NC(=O)[C@H](Cc3ccc(-c4ccccc4)cc3)NC(=O)[C@H](Cc3ccccc3C)NC2=O)c1` [Compound 2069] ({CH2CO}-[Dap]Y(Carboxymethyl)D[Phe(3-Me)][Phe(2-Me)][Bip]Y[Orn][dL][Dab][Cha]V[Orn]C[Dab][AEEA][Aun]-OH; thioether N-14), the half-inhibitory concentration (IC50) amounted to 14.9 nM.

In the case of `Cc1cccc(C[C@@H]2NC(=O)[C@H](CC(=O)O)NC(=O)[C@H](Cc3ccc(OCC(=O)O)cc3)NC(=O)[C@H](CN)NC(=O)CSC[C@@H](C(=O)N[C@@H](CCN)C(=O)NCCOCCOCC(=O)NCCCCCCCCCCC(=O)O)NC(=O)[C@H](CCCN)NC(=O)[C@H](C(C)C)NC(=O)[C@H](CC3CCCCC3)NC(=O)[C@H](CCN)NC(=O)[C@@H](CC(C)C)NC(=O)[C@H](CCCN)NC(=O)[C@H](Cc3ccc(O)cc3)NC(=O)[C@H](Cc3ccc(-c4ccccc4)cc3)NC(=O)[C@H](Cc3ccc(F)cc3)NC2=O)c1` [Compound 2070] ({CH2CO}-[Dap]Y(Carboxymethyl)D[Phe(3-Me)][Phe(4-F)][Bip]Y[Orn][dL][Dab][Cha]V[Orn]C[Dab][AEEA][Aun]-OH; thioether N-14), the IC50 was 11.6 nM.

Take `Cc1cccc(C[C@@H]2NC(=O)[C@H](CC(=O)O)NC(=O)[C@H](Cc3ccc(OCC(=O)O)cc3)NC(=O)[C@H](CN)NC(=O)CSC[C@@H](C(=O)N[C@@H](CCN)C(=O)NCCOCCOCC(=O)NCCCCCCCCCCC(=O)O)NC(=O)[C@H](CCCN)NC(=O)[C@H](C(C)C)NC(=O)[C@H](CC3CCCCC3)NC(=O)[C@H](CCN)NC(=O)[C@@H](CC(C)C)NC(=O)[C@H](CCCN)NC(=O)[C@H](Cc3ccc(O)cc3)NC(=O)[C@H](Cc3ccc(-c4ccccc4)cc3)NC(=O)[C@H](Cc3ccc(C#N)cc3)NC2=O)c1` [Compound 2071] ({CH2CO}-[Dap]Y(Carboxymethyl)D[Phe(3-Me)][Phe(4-CN)][Bip]Y[Orn][dL][Dab][Cha]V[Orn]C[Dab][AEEA][Aun]-OH; thioether N-14): the IC50 turned out to be 4.8 nM.

Take `Cc1cccc(C[C@@H]2NC(=O)[C@H](CC(=O)O)NC(=O)[C@H](Cc3ccc(OCC(=O)O)cc3)NC(=O)[C@H](CN)NC(=O)CSC[C@@H](C(=O)N[C@@H](CCN)C(=O)NCCOCCOCC(=O)NCCCCCCCCCCC(=O)O)NC(=O)[C@H](CCCN)NC(=O)[C@H](C(C)C)NC(=O)[C@H](CC3CCCCC3)NC(=O)[C@H](CCN)NC(=O)[C@@H](CC(C)C)NC(=O)[C@H](CCCN)NC(=O)[C@H](Cc3ccc(O)cc3)NC(=O)[C@H](Cc3ccc(-c4ccccc4)cc3)NC(=O)[C@H](Cc3cccc(C#N)c3)NC2=O)c1` [Compound 2072] ({CH2CO}-[Dap]Y(Carboxymethyl)D[Phe(3-Me)][Phe(3-CN)][Bip]Y[Orn][dL][Dab][Cha]V[Orn]C[Dab][AEEA][Aun]-OH; thioether N-14): the IC50 stood at 8.5 nM. As to `Cc1cccc(C[C@@H]2NC(=O)[C@H](CC(=O)O)NC(=O)[C@H](Cc3ccc(OCC(=O)O)cc3)NC(=O)[C@H](CN)NC(=O)CSC[C@@H](C(=O)N[C@@H](CCN)C(=O)NCCOCCOCC(=O)NCCCCCCCCCCC(=O)O)NC(=O)[C@H](CCCN)NC(=O)[C@H](C(C)C)NC(=O)[C@H](CC3CCCCC3)NC(=O)[C@H](CCN)NC(=O)[C@@H](CC(C)C)NC(=O)[C@H](CCCN)NC(=O)[C@H](Cc3ccc(O)cc3)NC(=O)[C@H](Cc3ccc(-c4ccccc4)cc3)NC(=O)[C@H](Cc3ccncc3)NC2=O)c1` [Compound 2073] ({CH2CO}-[Dap]Y(Carboxymethyl)D[Phe(3-Me)][4Pal][Bip]Y[Orn][dL][Dab][Cha]V[Orn]C[Dab][AEEA][Aun]-OH; thioether N-14), the half-maximal inhibitory concentration (IC50) is 8.9 nM. `Cc1ccc(C[C@@H]2NC(=O)[C@H](Cc3cccc(C)c3)NC(=O)[C@H](CC(=O)O)NC(=O)[C@H](Cc3ccc(OCC(=O)O)cc3)NC(=O)[C@H](CN)NC(=O)CSC[C@@H](C(=O)N[C@@H](CCN)C(=O)NCCOCCOCC(=O)NCCCCCCCCCCC(=O)O)NC(=O)[C@H](CCCN)NC(=O)[C@H](C(C)C)NC(=O)[C@H](CC3CCCCC3)NC(=O)[C@H](CCN)NC(=O)[C@@H](CC(C)C)NC(=O)[C@H](CCCN)NC(=O)[C@H](Cc3ccc(O)cc3)NC(=O)[C@H](Cc3ccc(-c4ccccc4)cc3)NC2=O)cc1` [Compound 2074] ({CH2CO}-[Dap]Y(Carboxymethyl)D[Phe(3-Me)][Phe(4-Me)][Bip]Y[Orn][dL][Dab][Cha]V[Orn]C[Dab][AEEA][Aun]-OH; thioether N-14): the IC50 turned out to be 5.5 nM.

These data come from US20260022142A1, “MACROCYCLIC IMMUNOMODULATORS” (Bristol-Myers Squibb Company, priority 2022, published 2026).
